Values of other authors as cited in patent US20050234025A1, “Compositions comprising one or more policosanols and/or policosanoic acids combined with sterol and/or steroid based ascorbic acid derivatives, and uses thereof” (FORBES MEDI-TECH INC., priority 2004, published 2005).

Tested on: mice
Conditions: Ben-David et al.

SMILES: C[C@]12CC[C@H](O)CC1=CC[C@@H]1[C@@H]2CC[C@]2(C)C(=O)CC[C@@H]12 [DHEA, dehydroepiandrostrone]
- effect on cholesterol (anti-hypercholesterolemic effect): anti-hypercholesterolemic effect
